According to patent US5480892A, “(N-phthalimidoalkyl)piperidines” (The Du Pont Merck Pharmaceutical Company, priority 1994, dated 1996):
Where two headings read alike, the source gives them in different places.

Columns and labels:
catalepsy in rats [1] = settings: rat, in vivo
[2] = system: PCP-induced turning behavior in rats; assay: PCP-Induced Turning Behavior in Rats; format: in vivo, rat (male Sprague-Dawley); settings: for ED50: Rattus norvegicus, po, 6-OHDA lesioned rats, drug p.o. 20 min before, PCP 1.5 mg/kg s.c., read-out: Inhibition of PCP-induced Turning (ED50 class)
Description: Male Sprague-Dawley rats (CD/CR, Charles River), weighing 190-290 g, were used for surgery. In order to spare […] neurons, rats were injected with 25 mg/kg imipramine intraperitoneal (i.p.) 30 min before surgery. The rats were anesthetized with a 1:1.2 ratio mixture of Xylazine:Ketamine given 0.1 mL/100 g body weight intramuscular (i.m.). A Ringers-Wydaze (100:0.01) solution was given to prevent dehydration. Dopamine was depleted in the right striatum by injecting the neurotoxin 6-hydroxydopamine (6-OHDA) into the substantia nigra of the right cerebral hemisphere. Five mg of 6-OHDA was dissolved in 5 mL of a 0.04% ascorbic acid solution which had been deoxygenated with nitrogen. Five μL of the 6-OHDA solution was injected into the substantia nigra through a 26 gauge needle over a five min period. Stereotaxic injection coordinates were -2.5 mm posterior to bregma, -2.1 mm right of the midsagittal suture, and -8.6 mm below the skull surface with the incisor bar set at +5.0 mm. Following surgery they were given 10 days to recover while housed four per cage (45.0 L×20.0 H×26.0 W) with ALPHA-dri bedding and ad lib access to Pro-Lab rodent chow and deionized water. […] At all times they were housed in the animal care facility under a 12--12 hour light/dark cycle (light on at 6:00 h, light off at 18:00 h).
Rotation rate and direction were determined with Coulbourn Instruments Rotometry Monitors. Clockwise and counter clockwise rotations were recorded at 30 and 60 min intervals. The rats were examined for correct lesion location by testing for rotational activity induced by subcutaneous (s.c.) injections of 3.0 mg/kg D-amphetamine SO4, and 2.0 mg/kg PCP HCl, respectively. These drugs were administered in the following sequence: Amphetamine was given 30 sec before testing. […]
The data was analyzed with an analysis of variance statistical test, and individual comparisons of each dose of test drug to control were made with Dunnett's multiple range test. The ED50 was calculated with a Litchfield and Wilcoxon test using percent of control values.

Sigma receptor = molecular target: T1, Sigma receptor (Cavia porcellus, UniProt Q60492); assay: Sigma Receptor Binding Assay; format: guinea pig (male Hartley), brain membranes; settings: 1 nM (+)-[3H]SKF 10,047, guinea pig brain membranes, pH 7.4, 45 min room temperature; read-out: Receptor Binding Affinity Sigma (Ki class)
T1 construct: Brain membranes were prepared by the method of Tam; from tissue; host or cells: guinea pig whole brain membranes

Dopamine (D-2) receptor = molecular target: T2, Dopamine (D-2) receptor (Cavia porcellus, UniProt H0VE83); assay: Dopamine Receptor Binding; format: guinea pig, striatum membranes; settings: 0.15 nM [3H]spiperone, guinea pig striatum, pH 7.7, 15 min 37° C.; read-out: Receptor Binding Affinity Dopamine (D-2) (Ki class)
T2 construct: Membranes were prepared from guinea pig striatum; from tissue; host or cells: guinea pig striatum membranes

[3] = system: isolation-induced aggression in mice; assay: Isolation-Induced Aggression in Mice; format: in vivo, mouse (male Balb/c); settings: for ED50: Mus musculus, po, 0.25 h, read-out: Inhibition of Isolation-induced Aggression (ED50 class)
in vivo = settings: rat, po
[4] = system: mescaline-induced scratching in mice; assay: Mescaline-Induced Scratching in Mice; format: in vivo, mouse (male CF1); settings: Mus musculus, 0.75 h, mescaline 25 mg/kg orally, 10 mg/kg po, read-out: Inhibition of Mescaline Scratch (ED50 class)
Description: This is a modification of the procedure of Fellows and Cook (in Psychotropic Drugs, ed. by S. Garrattini and V. Ghatti, pp. 397-404, Elsevier, Amsterdam, 1957) and Deegan and Cook (J. Pharmacol. Exp. Ther. 122: 17A, 1958). Male CF1 Mice (Charles River) were injected orally with test compound and placed singly into square (13 cm) Plexiglass observation chambers. Twenty minutes later mice were injected orally with mescaline (25 mg/kg). Beginning 25 minutes after treatment with mescaline (45 minutes after treatment with test compound), scratching episodes were counted during a 5 minute observation period. A scratching episode is defined as a brief (1-2 sec) burst of scratching either the head or the ear with the hind foot.

catalepsy in rats [5] = assay: Induction of Catalepsy; settings: statement on Table III
[6] = mice, p.o., 15 min after dosing

T1 sequence (Q60492 whole entry): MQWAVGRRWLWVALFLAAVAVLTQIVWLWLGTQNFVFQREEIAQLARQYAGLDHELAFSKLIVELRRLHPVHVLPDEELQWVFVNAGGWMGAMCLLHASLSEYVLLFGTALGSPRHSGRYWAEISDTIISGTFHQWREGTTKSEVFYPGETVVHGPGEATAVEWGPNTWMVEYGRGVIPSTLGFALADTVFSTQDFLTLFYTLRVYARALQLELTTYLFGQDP
T2 sequence (H0VE83 1-446): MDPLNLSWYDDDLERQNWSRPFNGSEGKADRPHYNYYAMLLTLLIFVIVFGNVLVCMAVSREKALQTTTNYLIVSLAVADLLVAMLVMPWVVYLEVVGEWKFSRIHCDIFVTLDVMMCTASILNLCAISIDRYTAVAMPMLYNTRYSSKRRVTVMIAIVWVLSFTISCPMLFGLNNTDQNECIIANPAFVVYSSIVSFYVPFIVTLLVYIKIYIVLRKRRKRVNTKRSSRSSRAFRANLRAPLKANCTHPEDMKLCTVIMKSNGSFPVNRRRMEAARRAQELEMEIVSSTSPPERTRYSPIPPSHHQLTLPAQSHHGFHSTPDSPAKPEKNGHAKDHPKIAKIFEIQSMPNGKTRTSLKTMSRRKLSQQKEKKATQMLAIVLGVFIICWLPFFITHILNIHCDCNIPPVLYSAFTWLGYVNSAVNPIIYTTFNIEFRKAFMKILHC

Row | Compound | Ki (Sigma receptor) | ED50 [3, 6] | ED50 [4] | also measured
1 | O=C1[C@H]2CCCC[C@H]2C(=O)N1CC1CCN(CCc2ccccc2)CC1 [Example 3, 2-[1-(2-Phenylethyl)-4-piperidinylmethyl]-cis-3a,4,5,6,7,7a-hexahydro-1H-isoindole-1,3(2H)-dione] | 1 to 30 nM | 11 to 20 mg/kg |  | producing catalepsy (catalepsy in rats [1]): does not produce catalepsy; ED50 [2]: 21 to 70 mg/kg; Ki (Dopamine (D-2) receptor): > 500 nM; ED50 (in vivo): > 70 mg/kg
2 | CCCCC1C2=C(CCCC2)C(=O)N1CC1CCN(CCc2ccccc2)CC1 (stereo not shown) [Example 135] |  | < 11 mg/kg | < 11 mg/kg | 
3 | O=C1C2=C(CCCC2)C(c2ccc(F)cc2)N1CC1CCN(CCc2ccccc2)CC1 (stereo not shown) [Example 136] | 31 to 100 nM | < 11 mg/kg | < 11 mg/kg | 
4 | CC1C2=C(CCCC2)C(=O)N1CC1CCN(CCc2ccc(F)cc2)CC1 (stereo not shown) [Example 137] |  | < 11 mg/kg | < 11 mg/kg | 
5 | Cc1ccc(C2C3=C(CCCC3)C(=O)N2CC2CCN(CCc3ccccc3)CC2)cc1 (stereo not shown) [Example 143] |  | < 11 mg/kg | < 11 mg/kg | 
6 | CCCC1C2=C(CCCC2)C(=O)N1CC1CCN(CCc2ccccc2)CC1 (stereo not shown) [Example 144] |  | < 11 mg/kg | < 11 mg/kg | 
7 | O=C(CCCN1CCC(O)(c2ccc(Cl)cc2)CC1)c1ccc(F)cc1 [haloperidol, reference compound] |  |  |  | ED50 [2]: < 11 mg/kg; inhibiting PCP-induced turning behavior ([2]; statement on Table III, rats): potent activity; ED50 [3]: < 11 mg/kg; inhibiting the isolation-induced aggressive behavior ([3]; statement on Table II): potent activities; ED50 (in vivo): < 11 mg/kg; producing catalepsy (catalepsy in rats [5]): very potent in producing catalepsy

The next lines start with results.

Row | Ki (Sigma receptor) | Compound | ED50 [3, 6] | ED50 [4] | also measured
8 | 31 to 100 nM | O=C1C2=C(CCCC2)C(c2ccccc2)N1CC1CCN(CCc2ccccc2)CC1 (stereo not shown) [Example 134] |  | < 11 mg/kg | 
9 | 1 to 30 nM | CCCCCCC1C2=C(CCCC2)C(=O)N1CC1CCN(CCc2ccccc2)CC1 (stereo not shown) [Example 138] | < 11 mg/kg | < 11 mg/kg | 
10 | 1 to 30 nM | CC(C)CC1C2=C(CCCC2)C(=O)N1CC1CCN(CCc2ccccc2)CC1 (stereo not shown) [Example 139] | < 11 mg/kg | < 11 mg/kg | 
11 | 31 to 100 nM | CCC(C)C1C2=C(CCCC2)C(=O)N1CC1CCN(CCc2ccccc2)CC1 (stereo not shown) [Example 140] |  | < 11 mg/kg | 
12 | 1 to 30 nM | O=C1C2=C(CCCC2)C(c2ccco2)N1CC1CCN(CCc2ccccc2)CC1 (stereo not shown) [Example 141] |  | < 11 mg/kg | 
13 | 1 to 30 nM | O=C1C2=C(CCCC2)C(c2cccs2)N1CC1CCN(CCc2ccccc2)CC1 (stereo not shown) [Example 142] |  | < 11 mg/kg | 
